In ChEMBL document CHEMBL5678818, “Discovery of potent SOS1 inhibitors that block RAS activation via disruption of the RAS-SOS1 interaction” (Proc Natl Acad Sci U S A, 2019):

What was measured:
[1] = species: Homo sapiens; assay: Inhibition of C-terminal RPS6KA4 kinetic domain 2 (unknown origin) assessed as residual activity at 100 nM by KINOMEscan analysis relative to control
[2] = molecular target: Ribosomal protein S6 kinase beta-1 (Homo sapiens) (UniProt P23443); assay: Inhibition of S6K1 (unknown origin) assessed as residual activity at 100 nM by KINOMEscan analysis relative to control
[3] = molecular target: Serine/threonine-protein kinase MARK2 (Homo sapiens) (UniProt Q7KZI7); assay: Inhibition of MARK2 (unknown origin) assessed as residual activity at 100 nM by KINOMEscan analysis relative to control
[4] = molecular target: T1, Aurora kinase C (Homo sapiens) (UniProt Q9UQB9); assay: Inhibition of AURKC (unknown origin) assessed as residual activity at 100 nM by KINOMEscan analysis relative to control
T1 sequence (whole entry): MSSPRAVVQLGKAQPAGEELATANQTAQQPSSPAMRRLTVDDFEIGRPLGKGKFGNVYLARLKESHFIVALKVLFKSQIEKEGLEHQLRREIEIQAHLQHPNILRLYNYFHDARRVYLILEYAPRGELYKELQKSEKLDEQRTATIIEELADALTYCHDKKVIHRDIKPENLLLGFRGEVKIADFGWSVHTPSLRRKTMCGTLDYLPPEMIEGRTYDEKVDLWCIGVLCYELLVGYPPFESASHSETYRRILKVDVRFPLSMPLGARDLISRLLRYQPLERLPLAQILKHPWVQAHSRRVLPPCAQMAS

[5] = molecular target: Calcium/calmodulin-dependent protein kinase type II subunit alpha (Homo sapiens) (UniProt Q9UQM7); assay: Inhibition of CAMK2A (unknown origin) assessed as residual activity at 100 nM by KINOMEscan analysis relative to control
[6] = tested on: Epidermal growth factor receptor (Homo sapiens), P00533 [G719S]; assay: Inhibition of EGFR G719S mutant (unknown origin) assessed as residual activity at 100 nM by KINOMEscan analysis relative to control
[7] = molecular target: Tyrosine-protein kinase Lck (Homo sapiens) (UniProt P06239); assay: Inhibition of LCK (unknown origin) assessed as residual activity at 100 nM by KINOMEscan analysis relative to control
[8] = molecular target: T2, Serine/threonine-protein kinase 36 (Homo sapiens) (UniProt Q9NRP7); assay: Inhibition of STK36 (unknown origin) assessed as residual activity at 100 nM by KINOMEscan analysis relative to control
T2 sequence (whole entry): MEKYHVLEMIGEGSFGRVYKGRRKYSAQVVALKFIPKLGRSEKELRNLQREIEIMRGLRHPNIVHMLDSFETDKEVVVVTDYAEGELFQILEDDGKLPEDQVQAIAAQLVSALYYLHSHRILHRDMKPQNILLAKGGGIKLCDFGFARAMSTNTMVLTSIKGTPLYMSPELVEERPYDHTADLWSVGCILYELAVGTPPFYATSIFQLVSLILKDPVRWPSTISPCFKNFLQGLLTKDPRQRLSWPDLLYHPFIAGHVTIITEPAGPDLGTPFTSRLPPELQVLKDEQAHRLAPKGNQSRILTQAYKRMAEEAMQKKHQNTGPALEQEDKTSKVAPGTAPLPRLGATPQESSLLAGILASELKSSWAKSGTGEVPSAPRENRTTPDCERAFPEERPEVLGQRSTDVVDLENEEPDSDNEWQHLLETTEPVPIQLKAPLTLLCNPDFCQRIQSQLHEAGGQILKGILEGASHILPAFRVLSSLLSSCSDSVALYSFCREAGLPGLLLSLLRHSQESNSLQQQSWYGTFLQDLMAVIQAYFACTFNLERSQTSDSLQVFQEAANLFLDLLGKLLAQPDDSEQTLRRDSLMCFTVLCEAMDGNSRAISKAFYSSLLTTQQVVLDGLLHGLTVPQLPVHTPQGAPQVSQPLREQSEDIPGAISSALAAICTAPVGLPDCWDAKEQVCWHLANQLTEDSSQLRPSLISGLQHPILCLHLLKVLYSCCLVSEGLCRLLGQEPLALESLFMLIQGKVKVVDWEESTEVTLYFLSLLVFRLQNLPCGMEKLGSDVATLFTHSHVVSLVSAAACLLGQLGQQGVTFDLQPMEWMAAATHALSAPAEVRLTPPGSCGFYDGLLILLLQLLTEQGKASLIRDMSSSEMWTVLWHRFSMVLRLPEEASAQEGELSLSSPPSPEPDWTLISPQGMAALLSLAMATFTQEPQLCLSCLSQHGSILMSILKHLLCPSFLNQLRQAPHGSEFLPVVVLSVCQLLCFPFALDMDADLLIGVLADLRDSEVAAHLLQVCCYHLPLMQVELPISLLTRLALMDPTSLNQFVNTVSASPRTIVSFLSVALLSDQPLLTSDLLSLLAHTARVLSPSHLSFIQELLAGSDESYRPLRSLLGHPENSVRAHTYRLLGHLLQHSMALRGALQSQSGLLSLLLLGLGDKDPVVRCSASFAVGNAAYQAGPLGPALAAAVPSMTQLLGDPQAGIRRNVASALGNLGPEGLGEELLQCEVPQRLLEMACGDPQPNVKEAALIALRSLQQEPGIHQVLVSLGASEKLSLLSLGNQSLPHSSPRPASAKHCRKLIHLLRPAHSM

[9] = molecular target: Angiopoietin-1 receptor (Homo sapiens) (UniProt Q02763); assay: Inhibition of TIE2 (unknown origin) assessed as residual activity at 100 nM by KINOMEscan analysis relative to control
[10] = molecular target: RAC-alpha serine/threonine-protein kinase (Homo sapiens) (UniProt P31749); assay: Inhibition of AKT1 (unknown origin) assessed as residual activity at 100 nM by KINOMEscan analysis relative to control
[11] = molecular target: Mitogen-activated protein kinase kinase kinase kinase 1 (Homo sapiens) (UniProt Q92918); assay: Inhibition of HPK1 (unknown origin) assessed as residual activity at 100 nM by KINOMEscan analysis relative to control
[12] = tested on: Receptor-type tyrosine-protein kinase FLT3 (Homo sapiens), P36888 [UNDEFINED MUTATION]; assay: Inhibition of FLT3 ITD/D835V mutant (unknown origin) assessed as residual activity at 1000 nM by KINOMEscan analysis relative to control
Receptor-type tyrosine-protein kinase FLT3 (Homo sapiens), P36888 [UNDEFINED MUTATION], sequence (P36888 whole entry, looked up, stated change not applied): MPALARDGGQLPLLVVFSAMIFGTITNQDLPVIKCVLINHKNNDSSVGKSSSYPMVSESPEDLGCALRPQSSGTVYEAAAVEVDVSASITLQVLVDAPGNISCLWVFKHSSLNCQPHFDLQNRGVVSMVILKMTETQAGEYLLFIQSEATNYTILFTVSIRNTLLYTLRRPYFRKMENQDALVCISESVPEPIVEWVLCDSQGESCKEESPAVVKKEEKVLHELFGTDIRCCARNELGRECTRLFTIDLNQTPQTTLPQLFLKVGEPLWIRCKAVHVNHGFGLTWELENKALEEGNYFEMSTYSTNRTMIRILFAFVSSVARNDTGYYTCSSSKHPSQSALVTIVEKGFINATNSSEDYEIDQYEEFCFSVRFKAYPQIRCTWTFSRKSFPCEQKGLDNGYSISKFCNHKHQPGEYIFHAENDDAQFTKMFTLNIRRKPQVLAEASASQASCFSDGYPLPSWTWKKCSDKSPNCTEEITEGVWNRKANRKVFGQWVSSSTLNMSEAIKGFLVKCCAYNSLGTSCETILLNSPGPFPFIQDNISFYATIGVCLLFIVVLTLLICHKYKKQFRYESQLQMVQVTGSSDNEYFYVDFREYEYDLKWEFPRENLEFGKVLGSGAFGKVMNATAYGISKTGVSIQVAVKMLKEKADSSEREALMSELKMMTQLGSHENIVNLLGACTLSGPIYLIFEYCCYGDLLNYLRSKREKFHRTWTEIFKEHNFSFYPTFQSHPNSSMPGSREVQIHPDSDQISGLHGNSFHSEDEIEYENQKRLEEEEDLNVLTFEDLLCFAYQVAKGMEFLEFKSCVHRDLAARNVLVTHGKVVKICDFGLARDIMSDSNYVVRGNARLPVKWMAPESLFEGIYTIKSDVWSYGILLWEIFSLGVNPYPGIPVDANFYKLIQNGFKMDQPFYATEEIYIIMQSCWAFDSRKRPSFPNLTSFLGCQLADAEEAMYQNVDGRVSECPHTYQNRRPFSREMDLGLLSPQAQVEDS

Calcium/calmodulin-dependent protein kinase type II subunit alpha (Homo sapiens), sequence (Q9UQM7 whole entry): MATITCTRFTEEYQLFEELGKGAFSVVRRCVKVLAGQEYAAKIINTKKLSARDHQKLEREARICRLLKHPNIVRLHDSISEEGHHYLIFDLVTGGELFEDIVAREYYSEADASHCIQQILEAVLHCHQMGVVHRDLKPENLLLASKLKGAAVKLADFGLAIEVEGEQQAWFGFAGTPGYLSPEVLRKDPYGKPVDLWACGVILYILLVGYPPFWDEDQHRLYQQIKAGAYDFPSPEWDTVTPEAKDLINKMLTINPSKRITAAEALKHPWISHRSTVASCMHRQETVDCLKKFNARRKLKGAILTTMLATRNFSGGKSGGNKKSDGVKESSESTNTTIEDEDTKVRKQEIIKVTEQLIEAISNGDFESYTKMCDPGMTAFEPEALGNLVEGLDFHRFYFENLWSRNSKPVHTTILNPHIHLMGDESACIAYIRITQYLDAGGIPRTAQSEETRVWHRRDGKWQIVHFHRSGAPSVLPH
Angiopoietin-1 receptor (Homo sapiens), sequence (Q02763 whole entry): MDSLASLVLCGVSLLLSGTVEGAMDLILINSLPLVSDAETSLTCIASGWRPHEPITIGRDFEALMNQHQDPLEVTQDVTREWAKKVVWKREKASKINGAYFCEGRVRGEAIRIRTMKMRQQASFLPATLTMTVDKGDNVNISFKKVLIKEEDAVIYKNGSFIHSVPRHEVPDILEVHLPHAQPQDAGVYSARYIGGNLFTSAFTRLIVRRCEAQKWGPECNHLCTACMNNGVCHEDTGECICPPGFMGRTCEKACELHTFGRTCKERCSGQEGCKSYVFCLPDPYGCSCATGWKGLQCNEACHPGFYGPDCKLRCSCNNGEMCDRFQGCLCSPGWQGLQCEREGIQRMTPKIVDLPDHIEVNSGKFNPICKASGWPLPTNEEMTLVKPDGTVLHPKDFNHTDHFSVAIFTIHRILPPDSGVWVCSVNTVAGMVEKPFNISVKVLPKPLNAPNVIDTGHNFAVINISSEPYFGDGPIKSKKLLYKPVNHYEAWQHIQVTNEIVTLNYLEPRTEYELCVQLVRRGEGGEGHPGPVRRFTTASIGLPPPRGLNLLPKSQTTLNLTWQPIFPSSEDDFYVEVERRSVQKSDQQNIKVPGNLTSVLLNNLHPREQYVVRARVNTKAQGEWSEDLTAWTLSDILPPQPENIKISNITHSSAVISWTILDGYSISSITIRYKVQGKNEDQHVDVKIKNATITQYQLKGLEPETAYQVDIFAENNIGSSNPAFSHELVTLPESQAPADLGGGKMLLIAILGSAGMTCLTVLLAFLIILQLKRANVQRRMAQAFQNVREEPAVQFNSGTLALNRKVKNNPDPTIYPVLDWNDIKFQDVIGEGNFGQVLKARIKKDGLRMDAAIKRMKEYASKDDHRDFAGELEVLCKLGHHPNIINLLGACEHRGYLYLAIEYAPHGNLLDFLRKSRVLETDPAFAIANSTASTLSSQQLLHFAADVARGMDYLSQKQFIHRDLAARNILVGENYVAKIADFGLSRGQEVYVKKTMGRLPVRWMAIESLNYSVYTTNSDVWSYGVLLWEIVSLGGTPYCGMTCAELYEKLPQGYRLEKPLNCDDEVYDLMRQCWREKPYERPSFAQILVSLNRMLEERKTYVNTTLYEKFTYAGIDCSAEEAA
Tyrosine-protein kinase Lck (Homo sapiens), sequence (P06239 2-509 limits assumed): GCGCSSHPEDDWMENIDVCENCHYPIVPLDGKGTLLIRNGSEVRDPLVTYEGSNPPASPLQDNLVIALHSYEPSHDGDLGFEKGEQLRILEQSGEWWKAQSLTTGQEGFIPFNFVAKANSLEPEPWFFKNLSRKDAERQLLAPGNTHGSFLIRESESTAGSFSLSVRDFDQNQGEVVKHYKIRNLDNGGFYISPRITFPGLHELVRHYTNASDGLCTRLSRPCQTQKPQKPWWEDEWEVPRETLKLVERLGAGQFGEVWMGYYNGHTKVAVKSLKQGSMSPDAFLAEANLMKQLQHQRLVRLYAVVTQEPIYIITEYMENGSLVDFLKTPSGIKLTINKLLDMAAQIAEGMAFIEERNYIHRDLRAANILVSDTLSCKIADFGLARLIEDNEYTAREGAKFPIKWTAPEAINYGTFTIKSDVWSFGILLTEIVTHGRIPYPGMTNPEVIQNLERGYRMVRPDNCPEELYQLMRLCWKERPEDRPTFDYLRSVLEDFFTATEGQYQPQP
Serine/threonine-protein kinase MARK2 (Homo sapiens), sequence (Q7KZI7 whole entry): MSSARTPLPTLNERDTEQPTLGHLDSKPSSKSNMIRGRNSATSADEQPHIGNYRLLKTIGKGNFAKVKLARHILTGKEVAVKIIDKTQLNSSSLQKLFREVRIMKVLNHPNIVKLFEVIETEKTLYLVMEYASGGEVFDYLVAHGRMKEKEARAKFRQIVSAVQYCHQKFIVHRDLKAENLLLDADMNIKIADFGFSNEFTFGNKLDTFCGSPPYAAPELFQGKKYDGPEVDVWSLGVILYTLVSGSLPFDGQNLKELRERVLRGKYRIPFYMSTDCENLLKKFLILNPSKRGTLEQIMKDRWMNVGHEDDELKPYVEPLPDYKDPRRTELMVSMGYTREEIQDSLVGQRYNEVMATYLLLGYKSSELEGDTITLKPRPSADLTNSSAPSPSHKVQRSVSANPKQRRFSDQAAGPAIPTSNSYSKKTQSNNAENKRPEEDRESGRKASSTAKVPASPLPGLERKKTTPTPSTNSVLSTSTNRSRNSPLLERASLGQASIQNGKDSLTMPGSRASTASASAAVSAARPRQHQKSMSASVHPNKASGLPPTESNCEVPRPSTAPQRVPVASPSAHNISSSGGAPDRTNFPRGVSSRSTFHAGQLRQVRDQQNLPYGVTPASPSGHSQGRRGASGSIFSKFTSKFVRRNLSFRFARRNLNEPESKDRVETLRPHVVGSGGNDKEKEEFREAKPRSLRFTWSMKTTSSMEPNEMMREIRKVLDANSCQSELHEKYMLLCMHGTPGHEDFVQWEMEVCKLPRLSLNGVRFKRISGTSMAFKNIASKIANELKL
Mitogen-activated protein kinase kinase kinase kinase 1 (Homo sapiens), sequence (Q92918 whole entry, looked up): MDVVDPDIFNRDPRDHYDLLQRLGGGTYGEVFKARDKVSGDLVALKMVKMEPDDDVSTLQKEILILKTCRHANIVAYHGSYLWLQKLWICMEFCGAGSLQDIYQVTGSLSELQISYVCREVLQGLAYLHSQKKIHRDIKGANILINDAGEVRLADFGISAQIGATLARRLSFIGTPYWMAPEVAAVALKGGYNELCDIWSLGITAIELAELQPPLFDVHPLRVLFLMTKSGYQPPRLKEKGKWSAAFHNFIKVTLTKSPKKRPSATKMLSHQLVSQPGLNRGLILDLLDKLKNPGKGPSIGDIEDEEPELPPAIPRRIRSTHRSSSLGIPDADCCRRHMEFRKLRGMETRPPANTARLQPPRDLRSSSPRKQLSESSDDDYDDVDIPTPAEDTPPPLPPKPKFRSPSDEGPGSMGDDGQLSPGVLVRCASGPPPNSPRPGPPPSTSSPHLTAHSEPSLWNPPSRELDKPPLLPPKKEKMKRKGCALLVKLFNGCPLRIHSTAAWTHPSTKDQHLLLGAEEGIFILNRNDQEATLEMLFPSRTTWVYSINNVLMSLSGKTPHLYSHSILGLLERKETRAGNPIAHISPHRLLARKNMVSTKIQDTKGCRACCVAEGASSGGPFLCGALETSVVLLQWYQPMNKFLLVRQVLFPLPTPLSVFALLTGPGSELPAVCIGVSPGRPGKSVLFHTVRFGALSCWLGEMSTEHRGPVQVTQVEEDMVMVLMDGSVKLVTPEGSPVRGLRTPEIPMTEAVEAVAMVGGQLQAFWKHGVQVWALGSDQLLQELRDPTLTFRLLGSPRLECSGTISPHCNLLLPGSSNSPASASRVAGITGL

Structure (SMILES) | Activity [1] [%] | Activity [2] [%] | Activity [3] [%] | Activity [4] [%] | Activity [5] [%] | Activity [6] [%] | Activity [7] [%] | Activity [8] [%] | Activity [9] [%] | Activity [10] [%] | Activity [11] [%] | Activity [12] [%]
COc1cc2ncnc(N[C@H](C)c3cccc4ccccc34)c2cc1OC | 87 | 77 | 82 | 78 | 96 | 96 | 100 | 80 | 68 | 79 | 81 | –
COc1cc2nc(C)nc(N[C@H](C)c3cccc(-c4cn[nH]c4)c3)c2cc1OC | – | – | – | – | – | – | – | – | – | – | – | 100
